From patent publication US5543420A, “Quinoline-3-acetic acid derivative, process for production thereof and use thereof” (The Green Cross Corporation, priority 1993, dated 1996)

Key:
[1] = test system: sorbitol accumulation in tissues (erythrocytes, sciatic nerve, lens); test: Inhibitory action on sorbitol accumulation in tissues of rats with experimental diabetes; type: in vivo, Sprague-Dawley rats; conditions: streptozotocin rats, 3 hours after final administration, control taken as 100%
Procedure: Sprague-Dawley rats (male, 6 weeks old, 5-6 per group) were fasted for 18 hours and injected with streptozotocin (SIGMA, 60 mg/kg) via the tail vein under etherization to prepare rats with diabetes.
[…] During the administrations, the rats were raised under free access to feed and water and the sorbitol content in the tissues (erythrocytes, sciatic nerve, lens) was determined 3 hours after the final administration according to the enzyme method of H. Y. Bergmeyer et al. [Methods of Enzymatic Analysis, vol. 3, 1323-1330 (1974)] with the use of SDH (sorbitol dehydrogenase) and NAD (β-nicotinamide adenine dinucleotide). The results are expressed in percent (%) relative to the value of a control group administered with 0.5% carboxymethylcellulose solution (solvent) instead of the compound, which was taken as 100%.

aldose reductase = biological target: T1, aldose reductase (Sus scrofa, UniProt P80276); test: Aldose reductase inhibitory action; type: biochemical; conditions: swine lens enzyme, diglyceraldehyde substrate 3 mM, 0.1 mM NADPH, pH 6.2, 25° C., 2 minutes; read-out: IC50 (concentration inhibiting the aldose reductase activity by 50%)
T1 construct: An aldose reductase enzyme standard product was prepared from swine lens; from tissue; host or cells: swine lens
Procedure: An aldose reductase enzyme standard product was prepared from swine lens according to the method of S. Hayman et al. [Journal of Biological Chemistry, 240, 877-882 (1965)]. That is, swine lenses freeze-stored at -80° C. were homogenized with distilled water and cetrifuged at 10,000 g for 15 minutes. The supernatant was prepared into a 40% ammonium sulfate solution and subjected to cetrifugation at 10,000 g for 10 minutes. The supernatant obtained was dialyzed overnight against a 0.05M sodium chloride solution to give a dialyzed solution, which was used as an enzyme standard product.
The activity of aldose reductase was determined by the above-mentioned method of S. Hayman et al. That is, the above-mentioned enzyme solution (25 μl) and a drug solution (25 μl) in 1% DMSO at various concentrations were added to a 40 mM phosphate buffer (200 μl, pH 6.2) containing final concentrations of 0.4M lithium sulfate, 0.1 mM NADPH (reduced type nicotinamide adenine dinucleotide phosphate) and 3 mM diglyceraldehyde as a substrate. The mixture was allowed to react at 25° C. for 2 minutes and the changes in absorbance at 340 nm was determined with COBAS FARA II (manufactured by Roche).
The changes in absorbance when 1% DMSO was added instead of the drug solution was taken as 100%, based on which 50% inhibition concentration (IC50) was calculated and shown in Table 1.
The test drug number indicates the example number to be mentioned later. Compound A is 3,4-dihydro-2,8-diisopropyl-3-thioxo-2H-1,4-benzoxazine-4-acetic acid disclosed in Japanese Patent Unexamined Publication 107970/1988.

Normal ICR mice = conditions: mouse, in vivo
Procedure: The acute toxicity (safety) of the compound of the present invention was confirmed by the following method.
Normal ICR mice (male, 7 weeks old, 5 per group) were fasted for 18 hours and the compounds (300 mg/kg) of Example 11 and Example 20 were orally administered as 0.5% carboxymethylcellulose suspensions. To the control group, a 0.5% carboxymethylcellulose solution alone was orally administered and observation was continued for 14 days thereafter, during which period the mice were allowed to take feed and water freely.

[2] = 30 mg/kg oral at 4, 8 and 24 hours
[3] = 10 mg/kg oral at 4, 8 and 24 hours

Row | Compound | IC50 (aldose reductase) [nM] | Sorbitol accumulation, erythrocytes [1, 2] [%] | Sorbitol accumulation, lens [1, 2] [%] | Sorbitol accumulation, sciatic nerve [1, 2] [%] | Sorbitol accumulation, erythrocytes [1, 3] [%] | Sorbitol accumulation, lens [1, 3] [%] | Sorbitol accumulation, sciatic nerve [1, 3] [%] | death of the mice (Normal ICR mice)
1 | CC(C)c1cccc2c1OC(C(C)C)C(=S)N2CC(=O)O (stereo not shown) [Compound A, 3,4-dihydro-2,8-diisopropyl-3-thioxo-2H-1,4-benzoxazine-4-acetic acid, reference compound] |  | 53.7 | 87.3 | 54.9 |  |  |  | 
2 | O=C(O)CC1Cc2ccccc2N(Cc2nc3c(F)c(F)cc(F)c3s2)C1=O (stereo not shown) [Example 11, 1-(4,5,7-Trifluorobenzothiazol-2-Yl)Methyl-2-Oxo-1,2,3,4-Tetrahydro-1H-Quinolin-3-Ylacetic Acid] | 9 |  |  |  | 15.6 | 50.7 | 0.0 | no case of death
3 | O=C(O)Cc1cc2ccccc2n(Cc2nc3c(F)c(F)cc(F)c3s2)c1=O [Example 20, 1-(4,5,7-trifluorobenzothiazol-2-yl)methyl-2-oxo-1,2-dihydro-1H-quinolin-3-ylacetic acid] | 9.4 |  |  |  |  |  |  | no case of death

Second part, led by results:

Row | IC50 (aldose reductase) [nM] | Compound | Sorbitol accumulation, erythrocytes [1, 2] [%] | Sorbitol accumulation, lens [1, 2] [%] | Sorbitol accumulation, sciatic nerve [1, 2] [%] | Sorbitol accumulation, erythrocytes [1, 3] [%] | Sorbitol accumulation, lens [1, 3] [%] | Sorbitol accumulation, sciatic nerve [1, 3] [%] | death of the mice (Normal ICR mice)
4 | 13 | O=C(O)CC1Cc2ccccc2N(Cc2nc3c(F)c(F)ccc3s2)C1=O (stereo not shown) [Example 12, 1-(4,5-difluorobenzothiazol-2-yl)methyl-2-oxo-1,2,3,4-tetrahydro-1H-quinolin-3-ylacetic acid] |  |  |  | 0.0 | 78.8 | 0.0 | 
5 | 11 | Cc1ccc2c(c1)CC(CC(=O)O)C(=O)N2Cc1nc2c(F)c(F)cc(F)c2s1 (stereo not shown) [Example 17, 1-(4,5,7-trifluorobenzothiazol-2-yl)methyl-6-methyl-2-oxo-1,2,3,4-tetrahydro-1H-quinolin-3-ylacetic acid] |  |  |  | 31.2 | 46.9 | 0.5 | 
6 | 12 | O=C(O)CC1Cc2cc(F)ccc2N(Cc2nc3c(F)c(F)cc(F)c3s2)C1=O (stereo not shown) [Example 19, 6-fluoro-1-(4,5,7-trifluorobenzothiazol-2-yl)methyl-2-oxo-1,2,3,4-tetrahydro-1H-quinolin-3-ylacetic acid] |  |  |  |  |  |  | 
